Laboratory results as given in ChEMBL document CHEMBL1201862, “PubChem BioAssay data set” (2004).
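A five-concentration, 48-hour dose response in 96-well plates underlies each endpoint, interpolated linearly between surrounding concentrations. GI50 is the concentration that inhibits growth by half.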 Active and inactive are the calls of the source. Cut-off read from the data, not from the text of the source: active = GI50 up to about 1.1 µM and inactive = higher.

Experiments:
Experiment in all cases: growth of human tumour cells (NCI), 48 h
786-0 = tested on: 786-0
A549 = tested on: A549
CAKI-1 = tested on: CAKI-1
HCC 2998 = tested on: HCC 2998
HCT-116 = tested on: HCT-116
HL-60 = tested on: HL-60
Hs-578T = tested on: Hs-578T
M14 = tested on: M14
MCF7 = tested on: MCF7
MDA-MB-435 = tested on: MDA-MB-435
Malme-3M = tested on: Malme-3M
NCI-H23 = tested on: NCI-H23
NCI-H522 = tested on: NCI-H522
PC-3 = tested on: PC-3
RPMI-8226 = tested on: RPMI-8226
SF-295 = tested on: SF-295
SK-MEL-28 = tested on: SK-MEL-28
SNB-19 = tested on: SNB-19
SNB-75 = tested on: SNB-75
UACC-62 = tested on: UACC-62

Measured: GI50

CCN(CC)CCN1C(=O)c2cccc3cc(N)cc(c23)C1=O
inactive: 786-0 5.32 µM | A549 5.57 µM | CAKI-1 7.28 µM | HCC 2998 8.61 µM | HCT-116 4.16 µM | HL-60 16.6 µM | Hs-578T 22.7 µM | M14 13.3 µM | MCF7 4.39 µM | MDA-MB-435 10.2 µM | Malme-3M 13 µM | NCI-H23 7.23 µM | NCI-H522 6.43 µM | PC-3 16.1 µM | RPMI-8226 7.35 µM | SF-295 9.12 µM | SK-MEL-28 19.3 µM | SNB-19 13.6 µM | SNB-75 15.8 µM | UACC-62 11.8 µM

O=C1C=C(NCCc2cc(Br)c(O)c(Br)c2)C(=O)c2[nH]cnc21
inactive: 786-0 > 100 µM | A549 32 µM | CAKI-1 39.9 µM | HCC 2998 11.5 µM | HCT-116 7.35 µM | HL-60 > 10 µM | Hs-578T 7.35 µM | M14 24.6 µM | MCF7 22.9 µM | MDA-MB-435 15.6 µM | Malme-3M 15 µM | NCI-H23 10.8 µM | NCI-H522 21.2 µM | PC-3 3.69 µM | RPMI-8226 > 10 µM | SF-295 30.5 µM | SK-MEL-28 39.7 µM | SNB-19 36.1 µM | SNB-75 21.9 µM | UACC-62 19.5 µM

CO[C@]12CC(=O)C3(C(C[C@H]4CC5CC=C6C[C@@H](OC(C)=O)CC[C@]6(OC(C)=O)C5C[C@@]43C)C1)C1C[C@H]3[C@@H]4CC=C5C[C@@H](OC(C)=O)CC[C@]5(OC(C)=O)[C@H]4CC[C@]3(C)C12 (stereo not given in full)
inactive: 786-0 19.8 µM | A549 21.9 µM | CAKI-1 19.2 µM | HCC 2998 17.8 µM | HCT-116 6.55 µM | HL-60 14.9 µM | Hs-578T 32.2 µM | M14 17.5 µM | MCF7 17.3 µM | MDA-MB-435 18.8 µM | Malme-3M 18.5 µM | NCI-H23 15.6 µM | NCI-H522 14 µM | PC-3 10.7 µM | RPMI-8226 7.18 µM | SF-295 13.9 µM | SK-MEL-28 30 µM | SNB-19 13.9 µM | SNB-75 36.7 µM | UACC-62 20.4 µM
